Source: patent US9426996B2, “Use of benzoxaboroles as volatile antimicrobial agents on meats, plants, or plant parts” (AgroFresh Inc., priority 2013, dated 2016)

Tests used:
Botrytis cinerea [1] = assay: white roses with natural inoculum, volatile treatment; type: in vivo; parameters: key to Severity (0-4): 0 = No disease; 1 = Browning and small lesions on the sepals or petals; 2 = Browning, petals covered with fungal spores; 3 = Browning, petals covered with fungal spores, some petal drop; 4 = Browning, petals covered with fungal spores, some flowers aborted
Procedure: A similar test like the one described above is also performed on white roses with natural inoculum. Five white roses are placed in an 800 mL jar containing 200 mL of a common commercial flower preservative.
Three jars are then placed in a 117 L Rubbermaid storage box (Cat #2244). Two small fans are place in opposite ends of the container to assist with the volatile distribution of compound A. The tub is closed tightly, and then Compound A is diluted in acetone, and then pipetted onto a 1.5 inch×1 inch cotton strip. The acetone is allowed to evaporate for five minutes. Compound A is then introduced to the containers by a sublimation device (copper tube heated to 200° C. with fan flow at 0.5 L/min) to achieve a final headspace concentration of 0.04, 0.2, 1 mg/L, through a ½″ side port that is sealed immediately after the application. Alternatively, Compound A is pipetted onto a 42.5 mm Whatman #1 filter disk (Cat. No. 1001-042), supported by a watch glass, where the acetone is allowed to evaporate for five minutes prior to sealing the container. The flowers are incubated for three days at 21° C. After treatment, flowers are evaluated for an additional two days for disease incidence and severity of the flower petals. Applying a treatment at 1 mg/L through sublimation results in 0% incidence. Rose petals after treatment with Compound A have no disease incidence, retained white color, and the roses had no petal drop.

Alternaria alternata = assay: combination treatment with 1-MCP on broccoli; type: in vivo; parameters: scale not given here; details: 11 C.
Botrytis cinerea [2] = assay: in vitro inhibition assay for volatile antimicrobial compounds (12-well PDA plates); type: cell-based; details: in vitro; volatile; 14 days at 4° C.
Procedure: 12-Well (7 milliliter (mL volume per well) microtiter plates are used for the in vitro inhibition assay for volatile antimicrobial compounds. A 3-mL volume of full-strength Potato Dextrose Agar (PDA) is added to each well. After cooling, 1 microliter (μL) of 1×10^6 per mL Botrytis cinerea spore suspension is spot pipetted to the center of the agar. For the first experiment, inoculated plates are allowed to germinate for 5 days at 4° C. For the second experiment, plates are inoculated immediately prior to volatile fungicide treatment. Small Whatman #1 filter disks (Cat. No. 1001-0155) are placed, in duplicate, on the underside of a polyethylene PCR plate sealing film.
The acetone is permitted to evaporate for 5 minutes. The headspace around the Botrytis cinerea inoculum is then sealed inside the well by the film with the adhering disk containing the fungicide. Plates are inverted, placed over the treated disks and sealed to prevent any of the chemical from flaking from the disk and falling onto the inoculated agar. After 14 days of storage at 4° C., cultures are evaluated for percent growth relative to control. Regardless of whether the spores had germinated for 5 days, or if the treatment commenced soon after inoculation of the plates (˜15 minutes); there is 100% control of the fungal pathogen down to 0.005 mg.
A total of 14 antimicrobial compounds are tested using the in vitro inhibition assay described in Example 1. All 14 compounds are applied to the Whatman disks, in duplicate, in a dose dependent manner (0.31 to 0.0006 mg/disk). […] Other compounds, such as Compound C, Compound D, and Compound E conferred 100% control down to 0.023, 0.04, and 0.08 mg/disk, respectively. Results of nine compounds are summarized in Table 2, where the other five compounds show no detected activity in the ranges tested. […]

Penicillium expansum = assay: in vivo sublimation bioassay on fruit, 1 mg/L (Example 31); details: 1 mg/L sublimed, three day treatment plus three days at 21° C.
Procedure: (§1) To assess the in vivo activity of volatile antimicrobial Compounds A and B (FIG. 1) in fruit, a volatile bioassay is developed using apple, pear, orange, strawberry, grape and blueberry.
(§2) Two apples, 2 oranges, 2 pears, 8 strawberries, 16 grapes or 30 blueberries (per replicate, in duplicate) are placed in a clamshell with the stem end facing up for all fruits except for strawberry (stem end facing downwards). A fresh wound is inoculated with 20 μL 1×10^6 per mL Penicillium expansum spore suspension (apple and pear), 20 μL 1×10^6 per mL Penicillium digitatum spore suspension (orange), and 20 μL (strawberry and grape) or 10 μL (blueberry) of 1×10^6 per mL Botrytis cinerea spore suspension. The clamshells are placed inside a 117 L Rubbermaid storage box (Cat #2244) with lids closed. […] After treatment, fruits are held for an additional three days at 21° C., then evaluated for disease incidence (mm diameter of browning or water-soaked lesions) and pathogen sporulation (mm diameter) for apple, pear and orange, as well as Botrytis cinerea disease incidence (%) and severity (0 to 4) for strawberry, grape and blueberry, with results summarized in Table 30.

Botrytis cinerea [3] = assay: as above; details: for Incidence (%) / Severity (0-4): 1 mg/L sublimed, three day treatment plus three days at 21° C.
Procedure: as §1, §2

Penicillium digitatum = assay: as above
Procedure: as §1, §2

[4] = 0.04 mg/L, Applied through sublimation
[5] = 0.04 mg/L, Volatilized from Whatman Filter
[6] = 0.2 mg/L, Applied through sublimation
[7] = 0.2 mg/L, Volatilized from Whatman Filter
[8] = 1 mg/L, Applied through sublimation
[9] = 1 mg/L, Volatilized from Whatman Filter
[10] = Orange, 1 mg/L sublimed, three day treatment plus three days at 21° C.

Compound: OB1OCc2cc(F)ccc21 [Compound A]
- Incidence (%) (Botrytis cinerea [1]; [4]): 46.7%
- Severity (0-4) (Botrytis cinerea [1]; [4]): 1.7
- Incidence (%) (Botrytis cinerea [1]; [5]): 46.7%
- Severity (0-4) (Botrytis cinerea [1]; [5]): 1.1
- Incidence (%) (Botrytis cinerea [1]; [6]): 13.3%
- Severity (0-4) (Botrytis cinerea [1]; [6]): 0.5
- Incidence (%) (Botrytis cinerea [1]; [7]): 66.7%
- Severity (0-4) (Botrytis cinerea [1]; [7]): 1.8
- Incidence (%) (Botrytis cinerea [1]; [8]): 0%
- Severity (0-4) (Botrytis cinerea [1]; [8]): 0
- Incidence (%) (Botrytis cinerea [1]; [9]): 53.3%
- Severity (0-4) (Botrytis cinerea [1]; [9]): 1.6
- Color Score (Alternaria alternata; 0.4 mg/L): 1.75
- Severity (Alternaria alternata; 0.4 mg/L): 0.00
- Color Score (Alternaria alternata; 2 mg/L): 2.11
- Severity (Alternaria alternata; 2 mg/L): 0.00
- lowest rate with 100% control of Botrytis cinerea (Botrytis cinerea [2]): 0.005 mg/disk
- Browning (mm) (Penicillium expansum; Apple): 0.8 mm
- Sporulation (mm) (Penicillium expansum; Apple): 0.0 mm
- Browning (mm) (Penicillium expansum; Pear): 4.7 mm
- Sporulation (mm) (Penicillium expansum; Pear): 0.0 mm
- in vivo antimicrobial control of B. cinerea (Botrytis cinerea [3]; 1 mg/L, volatile fungicide on different hosts): 100%
- Incidence (%) (Botrytis cinerea [3]; Blueberry): 0.0%
- Severity (0-4) (Botrytis cinerea [3]; Blueberry): 0.0
- Incidence (%) (Botrytis cinerea [3]; Grape): 0.0%
- Severity (0-4) (Botrytis cinerea [3]; Grape): 0.0
- Incidence (%) (Botrytis cinerea [3]; Strawberry): 0.0%
- Severity (0-4) (Botrytis cinerea [3]; Strawberry): 0.0
- in vivo antimicrobial control of P. digitatum (Penicillium digitatum; 1 mg/L, volatile fungicide): 100%
- Sporulation (mm) (Penicillium digitatum; [10]): 0.0 mm
- Water soaked lesion (Penicillium digitatum; [10]): 0.0 mm
